According to ChEMBL document CHEMBL1201862, “PubChem BioAssay data set” (2004):
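Step 1: Grow cells in 96-well plates. Step 2: Expose to compound for 48 hours at 5 concentrations. Step 3: Interpolate endpoints linearly; if unreached, use highest concentration. Here, GI50 denotes the concentration required for 50% inhibition of growth.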 Calls of active or inactive are those of the source. Rule as the data show it: active = GI50 up to about 1.1 µM and inactive = higher.

Tests used:
Test in all cases: NCI tumour cell line growth inhibition, 48 h
SNB-75 = system: SNB-75
COLO 205 = system: COLO 205
SW-620 = system: SW-620
SK-MEL-28 = system: SK-MEL-28
HOP-62 = system: HOP-62
HCT-116 = system: HCT-116
786-0 = system: 786-0
SN12C = system: SN12C
A498 = system: A498
Hs-578T = system: Hs-578T
SR = system: SR
U-251 = system: U-251
TK-10 = system: TK-10
RXF 393 = system: RXF 393
SNB-19 = system: SNB-19
DU-145 = system: DU-145
NCI-H522 = system: NCI-H522
SF-539 = system: SF-539
OVCAR-3 = system: OVCAR-3
UACC-62 = system: UACC-62

| SMILES | GI50 (SNB-75) | GI50 (COLO 205) | GI50 (SW-620) | GI50 (SK-MEL-28) | GI50 (HOP-62) | GI50 (HCT-116) | GI50 (786-0) | GI50 (SN12C) | GI50 (A498) | GI50 (Hs-578T) | GI50 (SR) | GI50 (U-251) | GI50 (TK-10) | GI50 (RXF 393) | GI50 (SNB-19) | GI50 (DU-145) | GI50 (NCI-H522) | GI50 (SF-539) | GI50 (OVCAR-3) | GI50 (UACC-62) |
| --- | --- | --- | --- | --- | --- | --- | --- | --- | --- | --- | --- | --- | --- | --- | --- | --- | --- | --- | --- | --- |
| CCN(CC)CC(O)CNc1ccc(NCC2CO2)c2c1C(=O)c1ccccc1C2=O (stereo not given) | 1.6 µM (inactive) | 0.906 µM (active) | 0.0327 µM (active) | 1.11 µM (active) | 1.15 µM (inactive) | 0.0466 µM (active) | 0.186 µM (active) | 0.139 µM (active) | 3.51 µM (inactive) | 1.14 µM (inactive) | 0.055 µM (active) | 1.24 µM (inactive) | 2.29 µM (inactive) | 0.397 µM (active) | 1.68 µM (inactive) | 1.63 µM (inactive) | 0.647 µM (active) | 1.32 µM (inactive) | 0.46 µM (active) | 0.56 µM (active) |
| CCCCCCCCC/C=C1\CCC(CN2CCOCC2)C1=O (stereo not given) | 6.17 µM (inactive) | 3.73 µM (inactive) | 2.28 µM (inactive) | 3.05 µM (inactive) | 13.6 µM (inactive) | 1.75 µM (inactive) | 1.3 µM (inactive) | 3.78 µM (inactive) | 12 µM (inactive) | 1.94 µM (inactive) | 2.38 µM (inactive) | 2.02 µM (inactive) | 2.33 µM (inactive) | 2.31 µM (inactive) | 9.04 µM (inactive) | 4.65 µM (inactive) | 2.64 µM (inactive) | 1.86 µM (inactive) | 8.55 µM (inactive) | 3.45 µM (inactive) |
| C=CC[C@@]1(OC(C)=O)C(=O)C(=O)OC1C1COC(C)(C)O1 (stereo not given in full) | 31.8 µM (inactive) | 12.9 µM (inactive) | 11.9 µM (inactive) | 18.8 µM (inactive) | 49.4 µM (inactive) | 13.1 µM (inactive) | 11.7 µM (inactive) | 17.6 µM (inactive) | 21.9 µM (inactive) | 31 µM (inactive) | 15.2 µM (inactive) | 16.9 µM (inactive) | 16.3 µM (inactive) | 16.3 µM (inactive) | 70.5 µM (inactive) | 24.2 µM (inactive) | 6.12 µM (inactive) | 25.1 µM (inactive) | 17.1 µM (inactive) | 16.5 µM (inactive) |
| COC(=O)[C@@H]1C=C[C@H](OC2OC(COC(C)=O)C(OC(C)=O)C(OC(C)=O)C2OC(C)=O)n2c(=O)n(-c3ccccc3)c(=O)n21 (stereo not given in full) | 4.06 µM (inactive) | 1.85 µM (inactive) | 1.79 µM (inactive) | 2.33 µM (inactive) | 14.5 µM (inactive) | 1.86 µM (inactive) | 1.41 µM (inactive) | 2.69 µM (inactive) | 7.46 µM (inactive) | 17.3 µM (inactive) | 1.82 µM (inactive) | 2.8 µM (inactive) | 1.79 µM (inactive) | 1.95 µM (inactive) | 11.4 µM (inactive) | 4.75 µM (inactive) | 0.507 µM (active) | 2.74 µM (inactive) | 1.74 µM (inactive) | 3.1 µM (inactive) |
| CCOC(=O)C(=CNC(=S)Nc1c(CC)cccc1CC)C(=O)OCC | 12.8 µM (inactive) | > 100 µM (inactive) | > 100 µM (inactive) | > 100 µM (inactive) | > 100 µM (inactive) | > 100 µM (inactive) | > 100 µM (inactive) | > 100 µM (inactive) | > 100 µM (inactive) | 80.7 µM (inactive) | > 100 µM (inactive) | > 100 µM (inactive) | > 100 µM (inactive) | > 100 µM (inactive) | > 100 µM (inactive) | > 100 µM (inactive) | > 100 µM (inactive) | > 100 µM (inactive) | > 100 µM (inactive) | > 100 µM (inactive) |
| CCON=C1C(C)(C)C(C)(C)C(C)(C)C1(C)C | > 100 µM (inactive) | > 100 µM (inactive) | > 100 µM (inactive) | > 100 µM (inactive) | > 100 µM (inactive) | > 100 µM (inactive) | > 100 µM (inactive) | > 100 µM (inactive) | > 100 µM (inactive) | > 100 µM (inactive) | > 100 µM (inactive) | > 100 µM (inactive) | > 100 µM (inactive) | > 100 µM (inactive) | > 100 µM (inactive) | > 100 µM (inactive) | > 100 µM (inactive) | > 100 µM (inactive) | > 100 µM (inactive) | > 100 µM (inactive) |
| Cc1nc(SCC(=O)Nc2ccc(Cl)cc2)c2sc(=S)n(-c3ccccc3)c2n1 | > 10 µM (inactive) | > 10 µM (inactive) | > 10 µM (inactive) | > 10 µM (inactive) | > 10 µM (inactive) | > 10 µM (inactive) | > 10 µM (inactive) | > 10 µM (inactive) | > 10 µM (inactive) | > 10 µM (inactive) | 6.28 µM (inactive) | > 10 µM (inactive) | > 10 µM (inactive) | > 10 µM (inactive) | > 10 µM (inactive) | > 10 µM (inactive) | > 10 µM (inactive) | > 10 µM (inactive) | > 10 µM (inactive) | > 10 µM (inactive) |
| Cn1cnc([N+](=O)[O-])c1[Se]c1nc(N)nc2c1ncn2C1OC(CO)C(O)C1O (stereo not given) | > 100 µM (inactive) | > 100 µM (inactive) | > 100 µM (inactive) | > 100 µM (inactive) | > 100 µM (inactive) | > 100 µM (inactive) | > 100 µM (inactive) | > 100 µM (inactive) | > 100 µM (inactive) | > 100 µM (inactive) | > 100 µM (inactive) | > 100 µM (inactive) | > 100 µM (inactive) | > 100 µM (inactive) | > 100 µM (inactive) | > 100 µM (inactive) | > 100 µM (inactive) | > 100 µM (inactive) | > 100 µM (inactive) | > 100 µM (inactive) |
